Values after ≈ are worked out from the molar mass of the structure shown.
Experiments:
Type in all cases: functional
Candida albicans [1] = assay: Antifungal activity against Candida albicans SC5314 assessed as inhibition of fungal growth incubated for 48 hrs by microbroth dilution method
Aspergillus fumigatus = assay: Antifungal activity against Aspergillus fumigatus 7544 assessed as inhibition of fungal growth incubated for 72 hrs by microbroth dilution method
Candida albicans [2] = assay: Antifungal activity against Candida albicans 10231 assessed as inhibition of fungal growth incubated for 48 hrs by microbroth dilution method
Pichia kudriavzevii = assay: Antifungal activity against Candida krusei 4996 assessed as inhibition of fungal growth incubated for 48 hrs by microbroth dilution method
Cryptococcus neoformans = assay: Antifungal activity against Cryptococcus neoformans 32,609 assessed as inhibition of fungal growth incubated for 72 hrs by microbroth dilution method
Nakaseomyces glabratus [3] = assay: Antifungal activity against Candida glabrata 537 assessed as inhibition of fungal growth incubated for 48 hrs by microbroth dilution method
Candida parapsilosis = assay: Antifungal activity against Candida parapsilosis 22019 assessed as inhibition of fungal growth incubated for 48 hrs by microbroth dilution method; conditions: Lodderomyces parapsilosis
Candida tropicalis = assay: Antifungal activity against Candida tropicalis 8915 assessed as inhibition of fungal growth incubated for 48 hrs by microbroth dilution method
Nakaseomyces glabratus [4] = assay: Potency index, ratio of fluconazole MIC to test compound MIC for antifungal activity against Candida glabrata 537 assessed as inhibition of fungal growth incubated for 48 hrs by microbroth dilution method
[Candida] auris [5] = Antifungal activity against fluconazole-resistant Candida auris 891 assessed as inhibition of fungal growth incubated for 48 hrs by microbroth dilution method; conditions: Candidozyma auris
[Candida] auris [6] = Antifungal activity against fluconazole-resistant Candida auris 918 assessed as inhibition of fungal growth incubated for 48 hrs by microbroth dilution method; conditions: Candidozyma auris
Candida albicans [7] = assay: Antifungal activity against fluconazole-resistant Candida albicans 901 assessed as inhibition of fungal growth incubated for 48 hrs by microbroth dilution method
Candida albicans [8] = assay: Antifungal activity against fluconazole-resistant Candida albicans 904 assessed as inhibition of fungal growth incubated for 48 hrs by microbroth dilution method
[Candida] auris [9] = Antifungal activity against fluconazole-resistant Candida auris 919 assessed as inhibition of fungal growth incubated for 48 hrs by microbroth dilution method; conditions: Candidozyma auris

MIC (Candida albicans [1]) [µg/mL]	MIC (Aspergillus fumigatus) [µg/mL]	MIC (Candida albicans [2]) [µg/mL]	MIC (Pichia kudriavzevii) [µg/mL]	MIC (Cryptococcus neoformans) [µg/mL]	MIC (Nakaseomyces glabratus [3]) [µg/mL]	MIC (Candida parapsilosis) [µg/mL]	MIC (Candida tropicalis) [µg/mL]	SMILES	Ratio (Nakaseomyces glabratus [4])	MIC ([Candida] auris [5]) [µg/mL]	MIC ([Candida] auris [6]) [µg/mL]	MIC (Candida albicans [7]) [µg/mL]	MIC (Candida albicans [8]) [µg/mL]	MIC ([Candida] auris [9]) [µg/mL]
0.25 (≈ 0.629 µM)	4 (≈ 10.1 µM)	8 (≈ 20.1 µM)	16 (≈ 40.3 µM)	1 (≈ 2.52 µM)	0.25 (≈ 0.629 µM)	4 (≈ 10.1 µM)	32 (≈ 80.5 µM)	Cc1ccccc1C#CCO[C@H](C)[C@](O)(Cn1cncn1)c1ccc(F)cc1F	–	–	–	–	–	–
≤ 0.125	4 (≈ 8.84 µM)	32 (≈ 70.8 µM)	64 (≈ 142 µM)	4 (≈ 8.84 µM)	1 (≈ 2.21 µM)	8 (≈ 17.7 µM)	32 (≈ 70.8 µM)	C[C@@H](OCC#Cc1cccc(Cl)c1Cl)[C@](O)(Cn1cncn1)c1ccc(F)cc1F	–	–	–	–	–	–
≤ 0.125	4 (≈ 9.15 µM)	> 64	8 (≈ 18.3 µM)	0.5 (≈ 1.14 µM)	≤ 0.125	2 (≈ 4.57 µM)	64 (≈ 146 µM)	C[C@@H](OCC#Cc1c(F)cc(F)cc1F)[C@](O)(Cn1cncn1)c1ccc(F)cc1F	>=8	–	–	–	–	–
≤ 0.125	4 (≈ 9.97 µM)	8 (≈ 19.9 µM)	8 (≈ 19.9 µM)	0.5 (≈ 1.25 µM)	≤ 0.125	2 (≈ 4.98 µM)	64 (≈ 159 µM)	C[C@@H](OCC#Cc1ccccc1F)[C@](O)(Cn1cncn1)c1ccc(F)cc1F	>=8	–	–	–	–	–
≤ 0.125	4 (≈ 10.1 µM)	16 (≈ 40.3 µM)	32 (≈ 80.5 µM)	2 (≈ 5.03 µM)	≤ 0.125	4 (≈ 10.1 µM)	16 (≈ 40.3 µM)	Cc1ccc(C#CCO[C@H](C)[C@](O)(Cn2cncn2)c2ccc(F)cc2F)cc1	>=8	–	–	–	–	–
≤ 0.125	1 (≈ 2.38 µM)	16 (≈ 38.2 µM)	4 (≈ 9.54 µM)	≤ 0.125	0.25 (≈ 0.596 µM)	0.5 (≈ 1.19 µM)	64 (≈ 153 µM)	C[C@@H](OCC#Cc1c(F)cccc1F)[C@](O)(Cn1cncn1)c1ccc(F)cc1F	–	–	–	–	–	–
4 (≈ 8.56 µM)	8 (≈ 17.1 µM)	32 (≈ 68.5 µM)	64 (≈ 137 µM)	4 (≈ 8.56 µM)	2 (≈ 4.28 µM)	16 (≈ 34.2 µM)	32 (≈ 68.5 µM)	C[C@@H](OCC#Cc1ccc(OC(F)(F)F)cc1)[C@](O)(Cn1cncn1)c1ccc(F)cc1F	–	–	–	–	–	–
0.25 (≈ 0.553 µM)	4 (≈ 8.84 µM)	> 64	16 (≈ 35.4 µM)	≤ 0.125	0.25 (≈ 0.553 µM)	4 (≈ 8.84 µM)	> 64	C[C@@H](OCC#Cc1c(Cl)cccc1Cl)[C@](O)(Cn1cncn1)c1ccc(F)cc1F	–	–	–	–	–	–
1 (≈ 2.05 µM)	2 (≈ 4.11 µM)	> 64	16 (≈ 32.9 µM)	0.5 (≈ 1.03 µM)	≤ 0.125	2 (≈ 4.11 µM)	64 (≈ 131 µM)	C[C@@H](OCC#Cc1c(Cl)cc(Cl)cc1Cl)[C@](O)(Cn1cncn1)c1ccc(F)cc1F	>=8	–	–	–	–	–
4 (≈ 8.86 µM)	16 (≈ 35.4 µM)	32 (≈ 70.9 µM)	64 (≈ 142 µM)	8 (≈ 17.7 µM)	1 (≈ 2.22 µM)	16 (≈ 35.4 µM)	64 (≈ 142 µM)	C[C@@H](OCC#Cc1ccc(C(F)(F)F)cc1)[C@](O)(Cn1cncn1)c1ccc(F)cc1F	–	–	–	–	–	–
0.25 (≈ 0.598 µM)	4 (≈ 9.57 µM)	16 (≈ 38.3 µM)	8 (≈ 19.1 µM)	2 (≈ 4.79 µM)	0.25 (≈ 0.598 µM)	1 (≈ 2.39 µM)	64 (≈ 153 µM)	C[C@@H](OCC#Cc1ccccc1Cl)[C@](O)(Cn1cncn1)c1ccc(F)cc1F	–	–	–	–	–	–
≤ 0.125	2 (≈ 4.77 µM)	8 (≈ 19.1 µM)	8 (≈ 19.1 µM)	1 (≈ 2.38 µM)	≤ 0.125	2 (≈ 4.77 µM)	8 (≈ 19.1 µM)	C[C@@H](OCC#Cc1cc(F)ccc1F)[C@](O)(Cn1cncn1)c1ccc(F)cc1F	>=8	–	–	–	–	–
≤ 0.125	8 (≈ 20.8 µM)	32 (≈ 83.2 µM)	16 (≈ 41.6 µM)	0.5 (≈ 1.3 µM)	≤ 0.125	0.5 (≈ 1.3 µM)	> 64	C[C@@H](OCC#Cc1ccccn1)[C@](O)(Cn1cncn1)c1ccc(F)cc1F	>=8	–	–	–	–	–
0.25 (≈ 0.553 µM)	16 (≈ 35.4 µM)	> 64	32 (≈ 70.8 µM)	2 (≈ 4.42 µM)	≤ 0.125	4 (≈ 8.84 µM)	> 64	C[C@@H](OCC#Cc1cc(Cl)ccc1Cl)[C@](O)(Cn1cncn1)c1ccc(F)cc1F	>=8	–	–	–	–	–
≤ 0.125	1 (≈ 2.49 µM)	16 (≈ 39.9 µM)	16 (≈ 39.9 µM)	1 (≈ 2.49 µM)	≤ 0.125	1 (≈ 2.49 µM)	32 (≈ 79.7 µM)	C[C@@H](OCC#Cc1cccc(F)c1)[C@](O)(Cn1cncn1)c1ccc(F)cc1F	>=8	–	–	–	–	–
≤ 0.125	4 (≈ 10.4 µM)	32 (≈ 83.2 µM)	4 (≈ 10.4 µM)	≤ 0.125	≤ 0.125	≤ 0.125	64 (≈ 166 µM)	C[C@@H](OCC#Cc1cccnc1)[C@](O)(Cn1cncn1)c1ccc(F)cc1F	>=8	–	–	–	–	–
≤ 0.125	4 (≈ 10.4 µM)	8 (≈ 20.9 µM)	8 (≈ 20.9 µM)	0.5 (≈ 1.3 µM)	≤ 0.125	0.5 (≈ 1.3 µM)	32 (≈ 83.5 µM)	C[C@@H](OCC#Cc1ccccc1)[C@](O)(Cn1cncn1)c1ccc(F)cc1F	>=8	–	–	–	–	–
≤ 0.125	4 (≈ 9.68 µM)	16 (≈ 38.7 µM)	32 (≈ 77.4 µM)	2 (≈ 4.84 µM)	0.25 (≈ 0.605 µM)	4 (≈ 9.68 µM)	16 (≈ 38.7 µM)	COc1ccc(C#CCO[C@H](C)[C@](O)(Cn2cncn2)c2ccc(F)cc2F)cc1	–	–	–	–	–	–
0.5 (≈ 1.26 µM)	1 (≈ 2.52 µM)	8 (≈ 20.1 µM)	32 (≈ 80.5 µM)	4 (≈ 10.1 µM)	0.25 (≈ 0.629 µM)	0.5 (≈ 1.26 µM)	64 (≈ 161 µM)	Cc1cccc(C#CCO[C@H](C)[C@](O)(Cn2cncn2)c2ccc(F)cc2F)c1	–	–	–	–	–	–
≤ 0.125	8 (≈ 19.1 µM)	16 (≈ 38.2 µM)	8 (≈ 19.1 µM)	1 (≈ 2.38 µM)	≤ 0.125	1 (≈ 2.38 µM)	32 (≈ 76.3 µM)	C[C@@H](OCC#Cc1cccc(F)c1F)[C@](O)(Cn1cncn1)c1ccc(F)cc1F	>=8	–	–	–	–	–
0.5 (≈ 1.2 µM)	2 (≈ 4.79 µM)	32 (≈ 76.6 µM)	32 (≈ 76.6 µM)	2 (≈ 4.79 µM)	0.5 (≈ 1.2 µM)	2 (≈ 4.79 µM)	32 (≈ 76.6 µM)	C[C@@H](OCC#Cc1cccc(Cl)c1)[C@](O)(Cn1cncn1)c1ccc(F)cc1F	–	–	–	–	–	–

SMILES	MIC (Candida albicans [1]) [µg/mL]	MIC (Aspergillus fumigatus) [µg/mL]	MIC (Candida albicans [2]) [µg/mL]	MIC (Pichia kudriavzevii) [µg/mL]	MIC (Cryptococcus neoformans) [µg/mL]	MIC (Nakaseomyces glabratus [3]) [µg/mL]	MIC (Candida parapsilosis) [µg/mL]	MIC (Candida tropicalis) [µg/mL]	Ratio (Nakaseomyces glabratus [4])	MIC ([Candida] auris [5]) [µg/mL]	MIC ([Candida] auris [6]) [µg/mL]	MIC (Candida albicans [7]) [µg/mL]	MIC (Candida albicans [8]) [µg/mL]	MIC ([Candida] auris [9]) [µg/mL]
C[C@@H](OCC#Cc1ccc(F)cc1)[C@](O)(Cn1cncn1)c1ccc(F)cc1F	≤ 0.125	1 (≈ 2.49 µM)	8 (≈ 19.9 µM)	8 (≈ 19.9 µM)	0.5 (≈ 1.25 µM)	≤ 0.125	1 (≈ 2.49 µM)	64 (≈ 159 µM)	>=8	16 (≈ 39.9 µM)	16 (≈ 39.9 µM)	64 (≈ 159 µM)	32 (≈ 79.7 µM)	16 (≈ 39.9 µM)
C[C@@H](OCC#Cc1ccc(Cl)cc1)[C@](O)(Cn1cncn1)c1ccc(F)cc1F	≤ 0.125	4 (≈ 9.57 µM)	16 (≈ 38.3 µM)	16 (≈ 38.3 µM)	1 (≈ 2.39 µM)	≤ 0.125	0.5 (≈ 1.2 µM)	≤ 0.125	>=8	4 (≈ 9.57 µM)	16 (≈ 38.3 µM)	32 (≈ 76.6 µM)	32 (≈ 76.6 µM)	8 (≈ 19.1 µM)
C[C@@H](OCC#Cc1ccc(Cl)cc1Cl)[C@](O)(Cn1cncn1)c1ccc(F)cc1F	≤ 0.125	4 (≈ 8.84 µM)	32 (≈ 70.8 µM)	32 (≈ 70.8 µM)	2 (≈ 4.42 µM)	0.25 (≈ 0.553 µM)	4 (≈ 8.84 µM)	32 (≈ 70.8 µM)	–	32 (≈ 70.8 µM)	16 (≈ 35.4 µM)	64 (≈ 142 µM)	32 (≈ 70.8 µM)	8 (≈ 17.7 µM)
